For one test, the target named is ALR2 (Rattus norvegicus, UniProt P07943). The experiment in a line: ALR2 enzymatic inhibition, spectrophotometric NADPH oxidation at 340 nm. The format is biochemical.
Conditions: not given
Broadly, the IC50 is the concentration that inhibits the measured activity by half. High values mean a need for much substance, low ones inhibition by little substance. On to `CC1(C)CC2(CN(CC(=O)O)CCO2)c2cc(Br)ccc2O1` (centres unmarked) [Compound 10, 2-(6-Bromo-2,2-dimethylspiro[chroman-4,2'-morpholin]-4'-yl) acetic acid], for which the midpoint of inhibition, the IC50, lay at 4.17 µM.

Consider `COc1cccc(COc2ccccc2C2(C)CN(CC(=O)O)C(=O)O2)c1` (centres unmarked) [Compound 11, 2-(5-(2-((3-Methoxybenzyl)oxy)phenyl)-5-methyl-2-oxooxazolidin-3-yl)acetic acid], for which the IC50 is 4.13 µM.

Turning to `CC1(C)CC2(CN(CC(=O)O)C(=O)CO2)c2ccccc2O1` (centres unmarked) [Compound 7, 2-(2,2-Dimethyl-5'-oxospiro[chroman-4,2'-morpholin]-4'-yl) acetic acid], the IC50 is 2 µM.

As to `COc1cc(COc2ccccc2C2(C)CN(CC(=O)O)C(=O)O2)cc(OC)c1OC` (centres unmarked) [Compound 13, 2-(5-Methyl-2-oxo-5-(2-((3,4,5-trimethoxybenzyl)oxy)phenyl)oxazolidin-3-yl)acetic acid], the midpoint of inhibition, the IC50, lay at 3.19 µM.

`CC1(C)CC2(CN(CC(=O)O)C(=O)O2)c2cc(Br)ccc2O1` (centres unmarked) [Compound 6, 2-(6-Bromo-2,2-dimethyl-2'-oxospiro[chroman-4,5'-oxazolidin]-3'-yl) acetic acid]: the IC50 amounted to 17.3 µM.

For the molecule `COc1ccc(C2(C)CC3(CN(CC(=O)O)C(=O)CO3)c3cc(Br)ccc3O2)cc1` (centres unmarked) [Compound 4, 2-(6-Bromo-2-(4-methoxyphenyl)-2-methyl-5'-oxospiro[chroman-4,2'-morpholin]-4'-yl) acetic acid], the IC50 was 4.97 µM.

For the molecule `CC1(C)CC2(CN(CC(=O)O)C(=O)O2)c2ccccc2O1` (centres unmarked) [Compound 5, 2-(2,2-Dimethyl-2'-oxospiro[chroman-4,5'-oxazolidin]-3'-yl) acetic acid], the IC50 was found to be 42.3 µM. Against the preceding molecule, the IC50 is about 8.5-fold higher.

Staying with this test, now noted: IC50 4.97 vs 0.58 μM.
Regarding `COc1ccc(C2(C)CC3(CN(CC(=O)O)C(=O)CO3)c3cc(Br)ccc3O2)cc1` (centres unmarked) [Compound 4, 2-(6-Bromo-2-(4-methoxyphenyl)-2-methyl-5'-oxospiro[chroman-4,2'-morpholin]-4'-yl) acetic acid], the “fold reduction in ARL2 inhibitory efficacy compared to parent 2” value was roughly 8 fold.

The record behind these values is paper PMC5418920 (The Open Medicinal Chemistry Journal, 2017).
